According to US6720424B1, “Aminobenzoic acid derivatives” (Taisho Pharmaceutical Co., Ltd., priority 1999, dated 2004):
Like-named read-outs stand apart in the source and are kept apart here.

How the values were obtained:
[1] = target: T1, KDR (Homo sapiens, UniProt P35968); experiment: (125I)-VEGF binding inhibition on NIH3T3 cells in which KDR was forced to be expressed; conditions: KDR-expressing NIH3T3 cells, (125I)-VEGF 25 pM, 90 minutes, read-out: IC50 (concentration of 50% binding inhibition)
T1 construct: expressed in transfected cells; host or cells: NIH3T3
Protocol: (§1) According to the method described in a document (Cell Growth & Differentiation, vol. 7, pp. 213-221, 1996), the following tests were carried out.
(§2) NIH3T3 cells in which Flt-1 was forced to be expressed were seeded on a 24-well collagen-coated plate (7×10^4/well), and were cultured in Dulbecco's modified Eagle's medium (DMEM) including 10% bovine serum and 200 μg/ml of Geneticin G418, for 24 hours at 37° C. under an atmosphere of 5% carbon dioxide gas. The cells were preincubated in Buffer A (including 10 mM HEPES (N-2-hydroxyethylpiperazine-N′-2-ethanesulfonic acid) and 0.1% BSA (bovine serum albumin) in DMEM), for 30 minutes at 4° C. Subsequently, the medium was replaced with Buffer B (including 10 mM HEPES and 0.5% BSA in DMEM). A test solution prepared by dissolving each of the test compounds shown in Table 19 in dimethylsulfoxide and subsequently diluting the solution into a prescribed concentration with Buffer B, and (^125I)-VEGF (the final concentration was set to 25 pM) were added thereto. Binding reaction was carried out for 90 minutes at […]. After completion of the reaction, the cells were washed three times with ice-cooled Buffer A. Subsequently, 0.5 ml of 0.5M NaOH were added to each well, and the cells were lysed in 30 minutes at room temperature. The radioactivity of the lysed cells in each well was measured by means of a gamma counter, and a total binding quantity of (^125I)-VEGF was calculated. Nonspecific binding quantity of (^125I)-VEGF was measured by competition assay in the presence of 10 nM non-labeled VEGF. The specific binding quantity of (^125I)-VEGF was calculated from the difference between the total binding quantity of (^125I)-VEGF and nonspecific binding quantity of (^125I)-VEGF.
(§3) The binding inhibition index of the test compounds was calculated by the following equation. [formula]
(§4) From this value, a concentration of 50% binding inhibition (IC50) of the test compound was calculated.
Test on each of the test compounds shown in Table 20 and Table 21 was carried out employing NIH3T3 cells in which KDR was forced to be expressed, in the same manner as described in Experimental Example 1 described above.

[2] = target: T2, Flt-1 (Homo sapiens, UniProt P17948); experiment: (125I)-VEGF binding inhibition on NIH3T3 cells in which Flt-1 was forced to be expressed; conditions: Flt-1-expressing NIH3T3 cells, (125I)-VEGF 25 pM, 90 minutes; read-out: IC50 (concentration of 50% binding inhibition)
T2 construct: expressed in transfected cells; host or cells: NIH3T3
Protocol: as §1, §2, §3, §4

T1 sequence (P35968 20-1356): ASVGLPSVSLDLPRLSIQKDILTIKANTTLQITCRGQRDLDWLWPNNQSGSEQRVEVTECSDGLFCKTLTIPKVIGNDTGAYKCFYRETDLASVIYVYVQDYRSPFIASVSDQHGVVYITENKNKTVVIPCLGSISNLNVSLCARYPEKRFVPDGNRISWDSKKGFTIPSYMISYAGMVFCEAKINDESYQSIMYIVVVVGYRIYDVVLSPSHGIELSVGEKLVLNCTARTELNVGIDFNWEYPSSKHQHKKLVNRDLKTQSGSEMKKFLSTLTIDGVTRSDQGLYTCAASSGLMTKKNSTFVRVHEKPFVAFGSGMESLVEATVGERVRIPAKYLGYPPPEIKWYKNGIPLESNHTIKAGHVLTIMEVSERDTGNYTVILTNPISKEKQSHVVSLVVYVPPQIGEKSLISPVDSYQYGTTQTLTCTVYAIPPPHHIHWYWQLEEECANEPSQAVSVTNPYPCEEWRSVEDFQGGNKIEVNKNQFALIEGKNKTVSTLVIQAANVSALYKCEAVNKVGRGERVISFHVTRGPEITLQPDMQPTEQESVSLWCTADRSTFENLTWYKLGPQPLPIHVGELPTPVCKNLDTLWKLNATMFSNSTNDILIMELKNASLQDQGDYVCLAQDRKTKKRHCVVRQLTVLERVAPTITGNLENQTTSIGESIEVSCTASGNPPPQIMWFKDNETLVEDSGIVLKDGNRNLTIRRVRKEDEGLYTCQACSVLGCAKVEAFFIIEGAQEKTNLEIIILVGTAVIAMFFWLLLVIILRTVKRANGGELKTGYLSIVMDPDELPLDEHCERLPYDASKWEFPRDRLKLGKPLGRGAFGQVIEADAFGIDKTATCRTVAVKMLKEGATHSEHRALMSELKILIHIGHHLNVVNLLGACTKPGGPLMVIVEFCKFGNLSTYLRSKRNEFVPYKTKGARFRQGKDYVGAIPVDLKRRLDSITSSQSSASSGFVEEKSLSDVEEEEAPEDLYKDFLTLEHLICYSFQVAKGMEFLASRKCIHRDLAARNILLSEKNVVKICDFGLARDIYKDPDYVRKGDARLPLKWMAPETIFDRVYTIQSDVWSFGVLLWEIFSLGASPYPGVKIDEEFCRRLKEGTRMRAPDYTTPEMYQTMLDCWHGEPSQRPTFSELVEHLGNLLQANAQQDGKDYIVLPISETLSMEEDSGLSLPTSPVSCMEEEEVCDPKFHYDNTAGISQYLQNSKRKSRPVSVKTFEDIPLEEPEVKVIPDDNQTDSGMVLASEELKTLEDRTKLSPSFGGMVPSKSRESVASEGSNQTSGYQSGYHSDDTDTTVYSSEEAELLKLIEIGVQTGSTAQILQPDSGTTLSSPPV
T2 sequence (P17948 27-1338): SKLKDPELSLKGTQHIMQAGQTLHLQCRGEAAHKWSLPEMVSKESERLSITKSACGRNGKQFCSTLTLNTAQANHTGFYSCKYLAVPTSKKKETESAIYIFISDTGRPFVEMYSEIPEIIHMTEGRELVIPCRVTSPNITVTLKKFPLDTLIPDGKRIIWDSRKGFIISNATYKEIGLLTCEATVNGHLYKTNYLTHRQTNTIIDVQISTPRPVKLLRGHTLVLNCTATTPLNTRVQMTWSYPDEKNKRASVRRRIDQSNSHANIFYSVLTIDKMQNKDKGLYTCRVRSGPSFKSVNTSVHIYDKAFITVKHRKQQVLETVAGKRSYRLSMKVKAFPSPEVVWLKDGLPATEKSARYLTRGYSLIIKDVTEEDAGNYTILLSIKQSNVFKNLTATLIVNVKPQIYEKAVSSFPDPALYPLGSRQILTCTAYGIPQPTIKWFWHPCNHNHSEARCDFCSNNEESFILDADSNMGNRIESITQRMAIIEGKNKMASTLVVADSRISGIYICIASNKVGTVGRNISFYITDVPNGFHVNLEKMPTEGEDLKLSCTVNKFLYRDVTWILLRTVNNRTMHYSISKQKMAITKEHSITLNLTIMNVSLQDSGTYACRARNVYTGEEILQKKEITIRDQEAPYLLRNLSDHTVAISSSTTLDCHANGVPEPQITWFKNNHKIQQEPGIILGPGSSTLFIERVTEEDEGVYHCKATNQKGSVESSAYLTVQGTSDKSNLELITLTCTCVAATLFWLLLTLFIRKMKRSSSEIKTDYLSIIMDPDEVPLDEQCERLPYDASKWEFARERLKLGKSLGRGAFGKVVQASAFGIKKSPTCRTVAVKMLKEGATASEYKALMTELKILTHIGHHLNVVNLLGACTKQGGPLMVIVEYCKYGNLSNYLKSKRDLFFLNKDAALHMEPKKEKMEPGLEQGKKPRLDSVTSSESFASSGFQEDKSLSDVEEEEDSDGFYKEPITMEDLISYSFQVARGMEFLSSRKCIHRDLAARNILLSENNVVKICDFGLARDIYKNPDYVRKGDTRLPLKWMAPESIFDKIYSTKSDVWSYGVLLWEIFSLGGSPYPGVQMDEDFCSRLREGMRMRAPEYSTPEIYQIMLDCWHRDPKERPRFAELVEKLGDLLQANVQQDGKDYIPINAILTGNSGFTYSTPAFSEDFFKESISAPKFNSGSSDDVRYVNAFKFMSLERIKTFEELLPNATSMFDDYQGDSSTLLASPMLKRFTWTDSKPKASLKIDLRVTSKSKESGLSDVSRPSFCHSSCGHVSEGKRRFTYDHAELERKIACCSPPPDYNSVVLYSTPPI

| SMILES | melting point [°C] | IC50 ([1]; Table 20) [nM] | IC50 [2] [nM] | IC50 ([1]; Table 21) [nM] |
| --- | --- | --- | --- | --- |
| CCCCCCCCCCCCCCCCCCOc1ccc(CCC(=O)Nc2ccc(Oc3ccc(C(=O)O)cc3)c(C(=O)O)c2)cc1 [Compound 27] | 213 to 215 | 510 | 680 | – |
| CCCCCCCCCCCCCCCCCCOc1ccc(CCC(=O)Nc2ccc(Oc3cccc(C(=O)O)c3)c(C(=O)O)c2)cc1 [Compound 28] | 201 to 205 | 420 | 710 | – |
| CCCCCCCCCCCCCCCCCCOc1ccc(CCC(=O)N(C)c2ccc(SC)c(C(=O)O)c2)cc1 [Compound 113] | 106 to 108 | – | 280 | 80 |
| CCCCCCCCCCCCCCCCCCOc1ccc(CC(=O)N(C)c2ccc(SC)c(C(=O)O)c2)cc1 [Compound 114] | – | – | 420 | 340 |
| CCCCCCCCCCCCCCCCCCOc1ccc(CC(=O)N(C)c2ccc(SCC)c(C(=O)O)c2)cc1 [Compound 154] | 87 to 88.5 | – | – | 500 |
| CCCCCCCCCCCCCCCCCCOc1ccc(CC(=O)N(C)c2ccc(SCCC)c(C(=O)O)c2)cc1 [Compound 155] | 76 to 80 | – | – | 670 |
| CCCCCCCCCCCCCCCCCCOc1ccc(CC(=O)N(C)c2ccc(SCCO)c(C(=O)O)c2)cc1 [Compound 161] | 114 to 117.5 | – | – | 1300 |
| CCCCCCCCCCCCCCCCCCOc1ccc(CC(=O)N(C)c2ccc(SCCCO)c(C(=O)O)c2)cc1 [Compound 162] | 104.5 to 106.5 | – | – | 1160 |
| CCCCCCCCCCCCCCCCCCOc1ccc(NCC(=O)Nc2ccc(SC)c(C(=O)O)c2)cc1 [Compound 163] | 163.5 to 169.5 | – | – | 410 |
| CCCCCCCCCCCCCCCCCCNc1ccc(CCC(=O)Nc2ccc(SC)c(C(=O)O)c2)cc1 [Compound 164] | 151 to 158 | – | – | 570 |
